Like-named read-outs stand apart in the source and are kept apart here.
Assays:
[1] = tested on: A549 lung cancer cells; conditions: for tumor weight lower (minus % compared to DMSO-treated control): after 7 weeks; for BrdU+ cells/field in tumor tissue: control about 6.3; for TUNEL+ cells/field in tumor tissue: control about 15.5; for tumor size versus control group: 6S 30 mg/kg, M2 30 mg/kg, M14 10 mg/kg, oral gavage 5×/week
Procedure: Nu/J nude mice were obtained from Jackson Laboratories (Bar Harbor, Me.). Animals were randomized into 4 groups. A549 cells (5×10^6 cells) were implanted in both flanks of 8-weeks old Nu/J mice. One week after implantation, animals were given 100 μl of the following treatments through oral gavage 5 times/week: DMSO 0.25 ml/kg (control; n=4); 6S 10 mg/kg (n=4); 6S 30 mg/kg (n=4) or M2 30 mg/kg (n=5). Compounds were diluted in a solution of 5% DMSO in corn oil. Animal body weight and tumor volume were recorded for the duration of the experiment. Tumor volume was calculated by measuring the length and width of the tumors using a digital caliper and using the formula (Length×Width^2)/2. One hour before sacrifice, mice were given one last treatment dose as well as one intra-peritoneal injection of BrdU (7.5 mg/kg in 100 μl PBS). After 7 weeks, tumor tissues were harvested and weighed. A portion of the tumors was snap frozen in liquid nitrogen and another portion was placed in a histology cassette and immersed in formalin solution.
[…] tissues were sent to Precision Histology Lab (Oklahoma City, Okla.) for embedding in paraffin blocks. Then paraffin blocks were processed into 3-4 μm sections that were then put on microscope slides. Sections were then deparaffinized by using a succession of 3 baths of xylene (5 minutes each), 2 baths of absolute ethanol (5 minutes each), 95% ethanol for 3 minutes, 70% ethanol for 3 minutes, and rinsed in PBS. Immunostaining with TUNEL (terminal deoxynucleotidyl transferase dUTP nick end labeling) and BrdU staining kits was performed following manufacturer's recommendation. For staining quantification, sequential high-power field pictures of tumors were taken (10 pictures per tumor) using an A1 Zeiss microscope (Oberkochen, Germany). Images were processed using the Image J software, which was used to count positive, brown-colored cells in each field. Average number per tumor was calculated by averaging the number obtained for each field, and the average number of positive cells per group was obtained by averaging the values of each tumor belonging to the experimental group.
8 week-old nude mice (Jackson Laboratory, Maine) were randomized into 5 groups based on treatment (DMSO: n=4; 6S 10 mg/kg: n=4 (“6S 10”); 6S 30 mg/kg: n=4 (“6S 30”); M2 30 mg/kg: n=5 (“M2 30”); M14 10 mg/kg: n=4 (“M14 10”)). Animals were implanted with 5×10^6 A549 lung cancer cells (adenocarcinomic human alveolar basal epithelial cells) on each flank. The mice had access to food and water ad libitum. One week post implantation, the animals started receiving their respecting treatments through oral gavage (100 μl in corn oil and 5% DMSO), 5×/week. After 7 weeks of treatment, the tumor tissues were harvested.

[2] = tested on: A549 cancer cells; test: MTT cell viability (Part 4); type: cell-based, human; conditions: A549, 24 hours, read-out: IC50 (toxicity, MTT)
[3] = tested on: IMR90 normal human lung cells; test: MTT cell viability (Part 4); type: cell-based; conditions: read-out: IC50 (toxicity, MTT)
[4] = tested on: A549 cells; test: Cell Death Detection ELISA apoptosis (Part 4); type: cell-based, human; conditions: A549, 20 μM, 24 hours; for enrichment factor (small nucleosomes, ELISA): with pft
Procedure: The Cell Death Detection ELISA (Enzyme-linked immunoabsorbant assay) Plus kit from Roche (Mannheim, Germany) was used. […] After 24 hours, the microplate was centrifuged for 10 minutes at 1200 rpm, and the supernatant was removed. 200 μl of the lysis buffer was added in each well and incubated for 30 minutes at room temperature. The plate was then centrifuged for 10 minutes at 1200 rpm and 20 μl of the supernatant was transferred to streptavidin-coated micro-wells. ELISA assay was performed according to manufacturer's instruction. Absorbance in each well was measured at 405 nm in absorbance units (AU), and the enrichment factor (EF) in small nucleosomes was calculated with the formula EF=AU treated/AU DMSO.

[5] = tested on: A549 cells; test: Intracellular glutathione (GSH, GSH/GSSG) measurement; type: cell-based, human; conditions: A549, 10 μM
Procedure: The total GSH content was measured using a HT Glutathione Assay kit (Trevigen, Galthersburg, Md.). Briefly A549 cells were plated in 60×15 mm culture plates and were allowed to attach overnight at 37° C. Cells were treated with 10 μM M2 and incubated for 0, 2, 4, 8, or 24 hours. Cells were harvested and proteins were precipitated with 5% (w/v) metaphosphoric acid. Samples were then processed following the manufacturer's instructions. The measurement of the absorbance of 5-thio-2-nitrobenzoic acid (TNB) at 405 nm was used to quantify glutathione levels in each sample, which was then compared to the standard curve and corrected for protein concentration.
For measurement of oxidized glutathione (Glutathione Disulfide or GSSG), samples and GSSG standards were treated with 2M 4-vinylpyridine (1 μL/50 μL sample) at room temperature for one hour. 4-Vinylpyridine (Sigma Aldrich, St. Louis, Mo.) blocks free thiols present in the reaction, consequentially blocking the formation of new GSSG by GSH. The 2M solution was freshly prepared by diluting 4-vinylpyridine in ethanol in a ratio of approximately 1:3.6. After incubation, samples were processed using the Trevigen kit's protocol and absorbance was measured at 405 nm as described herein.
The quantity of reduced cellular glutathione (or GSH) is obtained by subtracting the oxidized samples values from the total glutathione values or: GSH(reduced)=GSH(total)−GSSG(oxidized). Ratios of reduced to oxidized glutathione are shown to further represent cellular redox status after treatment with 6S or M2.

[6] = tested on: A549 cells; test: Western blotting of apoptosis and p53 pathway markers; type: cell-based, human; conditions: A549, 20 or 40 μM; for p53 levels (Western blot): 2 and 24 hours; for pro-apoptotic markers cytochrome C, cleaved caspase 3 and 9 (Western blot): 2 hours
Procedure: Cell extracts were prepared by incubating cells for 5 minutes on ice with RIPA (Radio-Immunoprecipitation Assay) buffer (Thermo Fisher Scientific, Rockford, Ill.) supplemented with a protease and phosphatase inhibitor mix. Cell lysate was then centrifuged at 13,000 rpm at 4° C. for 20 minutes, and supernatant was harvested for Western blot analysis. Briefly, 30-60 μg of protein extract were separated on a 10-16% polyacrylamide gel and transferred on PVDF (polyvinylidene difluoride) membrane (Biorad, Hercules, Calif.). Membrane was blocked using a 1% casein solution in TBS-Tween 20. Primary rabbit antibodies were diluted in blocking solution and incubated with the membrane overnight at 4° C. After washing the membrane with 3 changes of TBS-T, secondary Horse Radish Peroxydase (HRP)-conjugated anti-rabbit antibody was diluted 1:3000 in blocking solution and incubated with PVDF membrane for 1 hour at room temperature. […] Films were developed using a SRX-101A Konica Minolta developer (Tokyo, Japan). The experiment was repeated independently twice to confirm the results. Fold-induction of proteins calculated by normalizing the band of interest to the loading control (β-actin), and this adjusted intensity what compared to the control (DMSO) sample.

[7] = M2 30 mg/kg vs 6S 30 mg/kg, 7 weeks

Compound	tumor weight lower (minus % compared to DMSO-treated control) ([1]; 30 mg/kg oral gavage 5×/week) [%]	BrdU+ cells/field in tumor tissue ([1]; 30 mg/kg) [BrdU+ cells/field]	TUNEL+ cells/field in tumor tissue ([1]; 30 mg/kg) [TUNEL+ cells/field]	tumor size versus control group ([1]; 7 weeks)	enrichment factor (small nucleosomes, ELISA) [4]	intracellular GSH levels ([5]; 2 hours)	GSH/GSSG ratio ([5]; 4 hours)	intracellular GSH levels ([5]; 8 hours)	GSH/GSSG ratio ([5]; 24 hours)	intracellular GSH levels compared to baseline ([5]; 24 hours)	p53 levels (Western blot) [6]	pro-apoptotic markers cytochrome C, cleaved caspase 3 and 9 (Western blot) [6]	also measured
CCCCCC(CC(=O)CCc1ccc(O)c(OC)c1)SC[C@H](N)C(=O)O (stereo partly drawn) [M2, 5-cysteinyl-[6]-shogaol]	53.7	5.7	28.6	Reduction in tumor size	2	significantly depleted	significantly lower	significantly higher	significantly higher	significantly increased	increase in p53 levels	elevated after 2 hours	decrease of tumor burden relative to the equivalent 6S group [1, 7]: 21.8%; lower tumor burden than the equivalent 6S group compared to DMSO [1, 7]: 12.9%; changes in body weight between groups ([1]; oral gavage up to 7 weeks): did not induce any significant changes in body weight; IC50 [2]: 30.4 µM; IC50 [3]: 98.3 µM
CCCCC/C=C/C(=O)CCc1ccc(O)c(OC)c1 [[6]-shogaol, reference compound]	40.8	3.4	32.6	Reduction in tumor size	about 1	significantly depleted	significantly lower	significantly lower	significantly higher	significantly increased	increase in p53 levels	elevated after 2 hours	tumor weight lower (minus % compared to DMSO-treated control) ([1]; 10 mg/kg oral gavage 5×/week, not significant): 25.6%; BrdU+ cells/field in tumor tissue ([1]; 10 mg/kg): 4.7 BrdU+ cells/field; TUNEL+ cells/field in tumor tissue ([1]; 10 mg/kg): 27.8 TUNEL+ cells/field; IC50 ([2]; listed as 6S): 25.2 µM; IC50 ([3]; listed as 6S): 36.6 µM; enrichment factor (cytoplasmic histone-associated DNA fragments, ELISA) ([4]; without pft): 2.2; GSH/GSSG ratio ([5]; 2 hours): significantly lower

From patent US9549911B2, “Ginger metabolites and uses thereof” (North Carolina A&T State University, priority 2012, dated 2017)
